Converted amounts (≈) assume the structure as drawn.
Experiments:
Escherichia coli [1] = experiment: Antibacterial activity against Escherichia coli TG-1 transfected with Klebsiella pneumoniae full-length NDM-1 beta-lactamase gene; assay type: functional
Escherichia coli [2] = experiment: Antibacterial activity against Escherichia coli TG-1 transfected with Klebsiella pneumoniae full-length NDM-1 beta lactamase gene incubated in presence of meropenem; assay type: functional
Escherichia coli [3] = experiment: Synergistic antibacterial activity against Escherichia coli TG-1 transfected with Klebsiella pneumoniae full-length NDM-1 beta lactamase gene assessed as fractional inhibitory concentration index in presence of meropenem; assay type: functional
Escherichia coli [4] = experiment: Antibacterial activity against Escherichia coli BJE-4 expressing NDM-1 gene; assay type: functional
Escherichia coli [5] = experiment: Antibacterial activity against Escherichia coli BJE-4 expressing NDM-1 gene in presence of meropenem; assay type: functional
Escherichia coli [6] = experiment: Synergistic antibacterial activity against Escherichia coli BJE-4 expressing NDM-1 gene assessed as fractional inhibitory concentration index in presence of meropenem; assay type: functional
[7] = target: Metallo-beta-lactamase type 2 (Bacteria, UniProt C7C422); experiment: Inhibition of NDM-1 (unknown origin) using nitrocefin as substrate incubated for 15 to 60 mins by absorption based analysis
Sequence of Metallo-beta-lactamase type 2 (C7C422 whole entry): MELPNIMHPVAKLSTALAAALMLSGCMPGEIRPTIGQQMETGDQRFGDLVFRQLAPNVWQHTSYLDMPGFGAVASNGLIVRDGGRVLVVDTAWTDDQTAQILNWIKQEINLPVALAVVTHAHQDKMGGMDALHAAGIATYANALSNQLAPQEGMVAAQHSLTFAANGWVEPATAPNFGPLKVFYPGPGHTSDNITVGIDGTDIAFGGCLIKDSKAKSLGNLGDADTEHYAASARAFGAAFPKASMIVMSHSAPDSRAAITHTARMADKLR

SMILES	MIC (Escherichia coli [1]) [µg/mL]	MIC (Escherichia coli [2]) [µg/mL]	fractional inhibitory concentration index (FICI) (Escherichia coli [3])	MIC (Escherichia coli [4]) [µg/mL]	MIC (Escherichia coli [5]) [µg/mL]	fractional inhibitory concentration index (FICI) (Escherichia coli [6])	IC50 [7] [µM]
CSc1nnc(-n2[se]c3ccccc3c2=O)s1	> 64	≤ 8	0.25	> 16	8	0.625	8.8
O=c1c2ccccc2[se]n1CCNS(=O)(=O)c1ccc(Cl)c([N+](=O)[O-])c1	> 64	16	0.5	> 16	8	0.625	–
CCc1ccc(-n2[se]c3ccccc3c2=O)cc1	> 64	64	2	> 16	8	0.625	–
CC(C)(C)OC(=O)N1CC[C@@H](n2[se]c3ccccc3c2=O)C1	> 64	≤ 8	0.25	> 16	8	0.625	–
Cc1ccc(S(=O)(=O)NCCn2[se]c3ccccc3c2=O)cc1	> 64	≤ 8	0.25	> 16	8	0.625	–
CC(C)(C)OC(=O)N1CCC(n2[se]c3ccccc3c2=O)CC1	> 64	16	0.5	> 16	8	0.625	–
CC(C)(C)C(=O)NCCCn1[se]c2ccccc2c1=O	> 64	16	0.5	> 16	8	0.625	–
CC(C)(C)OC(=O)NCCn1[se]c2ccccc2c1=O	> 64	16	0.5	> 16	8	0.625	1.26
CCS(=O)(=O)NCCn1[se]c2ccccc2c1=O	> 64	16	0.5	> 16	8	0.625	–
O=c1c2ccccc2[se]n1-c1ccc(-c2ccccc2)cc1	64 (≈ 183 µM)	64	2	> 16	8	0.625	–
CC(C)(C)OC(=O)NCCCn1[se]c2ccccc2c1=O	> 64	16	0.5	> 16	8	0.625	–
CN(C)S(=O)(=O)NCCn1[se]c2ccccc2c1=O	> 64	≤ 8	0.25	> 16	8	0.625	–
